Measured values as given in PubChem BioAssay (NCI).
Values joined by “and” are separate entries in the source; they are usually repeats but may differ in a detail not shown here. Equal values may be shown once.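 1) Cells in 96-well plates. 2) Compound, 48 h, 5 concentrations. 3) Linear interpolation between surrounding doses. 4) Unreached endpoint = highest concentration. GI50 marks 50% less growth. TGI: total growth inhibition.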

What was measured:
Assay in all cases: NCI-60 cell line screen, 48 h
A498 renal = system: A498 renal
A549 NSCLC = system: A549 NSCLC
CAKI-1 renal = system: CAKI-1 renal
HCT-15 colon = system: HCT-15 colon
IGROV1 ovarian = system: IGROV1 ovarian
NCI-H226 lung = system: NCI-H226 lung
PC-3 prostate = system: PC-3 prostate
RXF 393 renal = system: RXF 393 renal
SK-MEL-2 melanoma = system: SK-MEL-2 melanoma
UACC-257 melanoma = system: UACC-257 melanoma

SMILES	TGI (A498 renal) [µM]	GI50 (A549 NSCLC)	TGI (A549 NSCLC) [µM]	GI50 (CAKI-1 renal)	TGI (CAKI-1 renal) [µM]	GI50 (HCT-15 colon)	TGI (HCT-15 colon) [µM]	GI50 (IGROV1 ovarian)	TGI (IGROV1 ovarian)	GI50 (NCI-H226 lung) [µM]	TGI (NCI-H226 lung) [µM]	GI50 (PC-3 prostate)	TGI (PC-3 prostate) [µM]	GI50 (RXF 393 renal) [µM]	TGI (RXF 393 renal) [µM]	GI50 (SK-MEL-2 melanoma)	TGI (SK-MEL-2 melanoma) [µM]	GI50 (UACC-257 melanoma) [µM]	TGI (UACC-257 melanoma) [µM]	GI50 (A498 renal)
O=[N+]([O-])c1cccc(-c2nc(-c3ccc(Cl)cc3Cl)cn2-c2ccccc2)c1	> 9.06	0.787 µM	1.92	0.477 µM	1.21	1.13 µM	> 23.2	1.2 µM	3.86 µM	3.17	> 33.3	0.391 µM	10.8	0.823	2.08	1.9 µM	> 11.8	1.41	10.7	
O=C(O)C1CC=CCC1C(=O)Nc1cccc(O)c1 (configuration not stated)	> 100		> 100		> 100		> 100		> 100 µM		> 100		> 100		> 100		> 100		> 100	
O=C(O)c1cc2ccccc2c2c3c(ccc12)OCO3	324	197 µM	621	185 µM	761	245 µM	> 1000	201 µM	738 µM	123	818	166 µM	559	146	342	166 µM	333	220	600	125 µM
CC(C)c1ccc(C2NC(=S)NC3=C2c2ccccc2C3=O)cc1 (configuration not stated)	> 60.8		> 62.4		> 58.5		> 51.9		> 54.6 µM		> 64.6		23.5		23.9		41.7		> 58.7	
O=S(=O)(NCCNc1nccc(-c2c(-c3ccc(F)c(O)c3)nc3sccn23)n1)c1ccc(Cl)cc1	11.7	1.69 µM	> 50	1.99 µM	10.4	1.67 µM	> 50	1.45 µM	> 50 µM	1.8	18.4	1.14 µM	> 50	0.651	4.7	1.64 µM	7.99	2.53	> 50	1.63 µM
O=C1/C=C/[C@@H](O)[C@@H]2C[C@@H](O)C[C@H]2/C=C/CCC[C@H](CCc2ccc3ncccc3c2)O1		0.308 µM	> 57.9	0.282 µM		0.337 µM	14.5	0.394 µM	> 34 µM			0.313 µM	> 36	0.0945	0.419	0.266 µM	0.654	0.13	5.95	0.1 µM
NCCCOc1cc2ccccc2cc1C(=O)Nc1ccc(Cl)cc1OC(=O)c1cc2ccccc2cc1OCCCN	2.92			1.4 µM	4.12	0.468 µM	1.15					0.575 µM	1.58	0.61	1.69	0.312 µM	1.2	1.01	2.32	1.53 µM
C=C1c2ccccc2C(=O)c2c1c1c(C(=O)OC)c(OC(=O)OCc3ccc([N+](=O)[O-])cc3)ccc1n2Cc1ccccc1	> 100	16.5 µM	> 100	20.3 µM	58.2	34.3 µM	> 100	14 µM	41.9 µM	19.6	44.1	0.329 µM	4.4	3.1	> 100	23.9 µM	> 100	29.8	> 100	65.5 µM
COCCOCCOCc1n(Cc2ccc3ccccc3c2)c2ccccc2[n+]1Cc1ccc2ccccc2c1	2.19	1.33 µM	3.84			1.69 µM	3.36	0.328 µM	1.55 µM	0.957	2.53	0.344 µM	1.59	0.318	1.58	0.313 µM	0.941	0.289	0.988	0.92 µM
C/C=C/C/C=C/[C@H](C)C[C@H](O)[C@@H]1C[C@@H]2O[C@H]2/C=C/[C@@H]2OC(C)(C)O[C@H]2/C=C/C[C@H](C)CC(=O)O1	> 100	8.79 µM	> 100	2.9 µM	31.1	4.84 µM	> 100	10.5 µM	> 100 µM	6.08	> 100	5.75 µM	> 100	30.4	> 100	39.3 µM	> 100	56.7	> 100	> 100 µM
COc1cc(Cl)cc(-c2nn(-c3cccc(NC(=O)Nc4cccc(C(F)(F)F)c4)c3)cc2-c2ccncc2)c1	25.6	0.726 µM	7.42	1.29 µM	8.9	1.34 µM	10.6	2.86 µM	22.7 µM	2.26	11.5	0.417 µM	3.2	1.4	4.35	1.29 µM	3.08	1.75	4.65	2.25 µM
CO[C@@H]1CCN(c2nccc(Nc3cc4c(C(C)C)ccc(N5CC(CS(C)(=O)=O)[C@H]5C)c4cn3)n2)C[C@@H]1F (some centres not stated)	44.7	3.06 µM	> 100	2.32 µM	> 100	2.84 µM	14.4	1.03 µM	7.13 µM	6.17	62.9	3.52 µM	> 100	2.96	7.65	4.7 µM	17.6	4.91	41.1	10.1 µM
CC(C)(C)OC(=O)NCCCCn1c2c(c3ccccc3c1=O)C(=O)c1ccccc1-2	65.3	17.6 µM	44.5	10.7 µM	37.2	35.3 µM	> 100	23 µM	> 100 µM	14.1	51.2	8.71 µM	> 100	23.1	> 100	52.1 µM	> 100	29.7	71.1	23.4 µM
Nc1c(C(=O)Nc2ccccn2)sc2nc3c(cc12)C(O)CCC3 (configuration not stated)	> 50	2.6 µM	> 50	2.92 µM	> 50	1.69 µM	> 50	3.27 µM	> 50 µM	> 50	> 50	1.34 µM	> 50	1.69	> 50	1.34 µM	> 50	> 50	> 50	1.53 µM
CCOC(=O)Nc1nc2ccccc2[nH]1	> 28.8	7.08 µM and 9.89 µM	> 100	3.84 µM and 3.73 µM	> 100	3.89 µM and 4.14 µM	> 100	> 26.6 µM and 4.1 µM	> 100 µM		> 100	6.6 µM and 4.07 µM	> 100	3.89	43.6	3.44 µM and 4.49 µM	> 100	3.77	> 100	2.42 µM and 3.81 µM
[N-]=[N+]=NCCCn1c2c(c3ccc([N+](=O)[O-])cc3c1=O)C(=O)c1cc3c(cc1-2)OCO3		< 0.0388 µM	2.87	< 0.01 µM	< 0.0152	1.42 µM	> 100	0.165 µM	1.46 µM	< 0.01	2.34	2.24 µM	> 100	0.39	40.3	2.58 µM	22.3	0.495	15.2	
COc1cccc(-c2nn(-c3ccccc3)cc2-c2ccnc(NCCCNC(=O)c3cccc(C(F)(F)F)c3)c2)c1		4.07 µM	16.2	6.27 µM	32.5	3.4 µM	15.6	7.59 µM	32 µM	2.24	10.7	3.18 µM	24	2.2	7.52	7.23 µM	23.6	4.4	15.8	
COc1cccc(/C=C/c2nc3c(cnn3-c3ccccc3)c(=O)[nH]2)c1	> 100	> 39.6 µM	> 100	> 45.6 µM	> 100	> 100 µM	> 100	13 µM	> 100 µM	> 100	> 100	> 100 µM	> 100	17.3	67.9	> 100 µM	> 100	> 100	> 100	> 100 µM
c1ccc(CN2CCc3[nH]c4ccccc4c3C2)cc1	88.1		> 79.8		> 100		62.6		> 79.5 µM		> 96.8		> 100		> 100		41.1		37.1	
C=C1C(=O)OC2C1C(OC(=O)/C(C)=C/C)CC(O)(CCl)C1C(O)C=C(C)C21O (configuration not stated)	> 60.1		> 63.7		11.4		14.4		31.6 µM		46.5		> 51.3		18.3		> 50.3		25.6	
Nc1ncnc2c1ncn2C1OC(COS(N)(=O)=O)C(O)C1O (configuration not stated)	0.0344					0.00255 µM	0.0071	0.00291 µM and 0.0248 µM	0.00781 µM and 0.065 µM	0.00203	0.00398	0.0243 µM	0.0587							0.0164 µM
COc1ccc(C(C)c2cc(OC)c(OC)c(OC)c2)cc1 (configuration not stated)	> 50	0.189 µM	> 50			0.088 µM	> 50	0.278 µM	> 50 µM	46.5	> 50	0.165 µM	> 50	0.126	> 50			32.3	> 50	0.125 µM
CCOC(=O)C(Cc1c[nH]c2cc(N(CCO)CCO)ccc12)(NC(C)=O)C(=O)OCC	> 1000	604 µM	> 1000			758 µM	> 1000	445 µM	> 1000 µM	> 1000	> 1000	94.9 µM and 160 µM	> 1000	128	719			> 1000	> 1000	570 µM
CC(C)(C)c1cc(C(=O)Nc2ccc(C(=O)NCCN)cc2)cc(C(C)(C)C)c1	26	3.15 µM	9.41	15.5 µM	32.9	4.75 µM	19.4			6.43	28.1	3.07 µM	11	1.68	3.16	2.15 µM	4.85	17.7	37.4	8.27 µM
Cc1cc(C(=O)/C=C/c2ccc[nH]2)ccc1-n1ccc(C(F)(F)F)n1		6.82 µM	> 100	3.04 µM	28.7	11.1 µM	> 100	2.02 µM	4.56 µM	30	> 100	0.472 µM	4.45	1.8	4.74	> 100 µM	> 100	21.9	> 100	
C[C@]12CC[C@@H]3c4ccc(O)cc4CC[C@H]3[C@@H]1CC[C@@H]2NS(=O)(=O)c1ccc(Br)cc1	3.7	2.89 µM	11.1	3.12 µM	10.2			3.85 µM	12.1 µM	2.04	4.17	2.6 µM	13.8	2.43	4.99	2.35 µM	5.3	2.56	8.12	1.61 µM
OB(O)c1ccccc1C#Cc1ccccc1B(O)O	15.6		96.1		22.1		> 100		13.9 µM				> 100		36.9		34.7		17.3	
